Laboratory results from patent publication US20250241876A1, “ANTI-TUMOR COMPOUNDS AND METHODS OF USE THEREOF AND SYNTHESIS THEREOF” (Atossa Therapeutics, Inc., priority 2023, published 2025).

What was measured:
Type in all cases: cell-based
[1] = system: ERα+ breast cancer cell lines; experiment: RT-qPCR analysis; details: 0.1 μM
[2] = system: T47D cells; experiment: 2D culture proliferation, T47D
Text: (§1) Approximately 80% of breast cancers express estrogen receptor alpha (ERα, ESR1) which drives cancer progression. […] (Z)-Endoxifen (ENDX), an active metabolite of tamoxifen, is a potent orally bioavailable selective estrogen receptor modulator with a favorable safety profile now under development for breast health applications. Its synthesis yields endoxifen-related byproduct new chemical entities (NCE), including Compound 7b, Compound 7a, Compound 5b and Compound 5a. This study compared the anti-estrogenic effects of these compounds to (Z)-endoxifen in ERα+ breast cancer cell lines (MCF7, T47D, UCD12), including those with ESR1 mutations (Y537S, D538G) linked to endocrine resistance.

[3] = system: UCD12 cells; experiment: 2D culture proliferation, UCD12; details: for anti-proliferative activity compared with (Z)-endoxifen: estrogen-deficient conditions
Text: as §1

[4] = system: estrogen-induced and ERα-mediated activation of an estrogen response element (ERE) luciferase reporter construct in ER+ T47D cells; experiment: Luciferase (ERE reporter) agonist/antagonist assay, ER+ cells
[5] = system: MCF7 cells; experiment: Apoptosis induction, MCF7, Example 29; details: 1-5 μM; p<0.0001 vs. vehicle; p<0.0001 vs. (Z)-endoxifen
[6] = system: T47D cells; experiment: Apoptosis induction, T47D, Example 29; details: p<0.0001 vs. vehicle
[7] = system: T47D cancer cells; experiment: Cell cycle progression assay; details: higher concentration (2.5, 5 μM)
Description: This example covers cell cycle progression assays with endoxifen and multiple endoxifen-related compounds on T47D cancer cells. FIGS. 63A-G are plots that show absolute cell counts for cells in different cell cycle phases (G1 through S; G1; and S, G2, and M) following treatment with vehicle (DMSO) or 1.25 μM endoxifen, Compound 7b, Compound 7a, Compound 5b, Compound 5a, and Compound 3, respectively. FIGS. 64A-G are plots that show percent cell counts for cells in different cell cycle phases following treatment with vehicle or 1.25 μM endoxifen, Compound 7b, Compound 7a, Compound 5b, Compound 5a, and Compound 3, respectively. FIGS. 65A-G are plots that show absolute cell counts for cells in different cell cycle phases following treatment with vehicle or 2.5 μM endoxifen, Compound 7b, Compound 7a, Compound 5b, Compound 5a, and Compound 3, respectively. FIGS. 66A-G are plots that show percent cell counts for cells in different cell cycle phases following treatment with vehicle or 2.5 μM endoxifen, Compound 7b, Compound 7a, Compound 5b, Compound 5a, and Compound 3, respectively. FIGS. 67A-G are plots that show absolute cell counts for cells in different cell cycle phases following treatment with vehicle or 5 μM endoxifen, Compound 7b, Compound 7a, Compound 5b, Compound 5a, and Compound 3, respectively. […]

[8] = system: MCF7 cells; experiment: Caspase-3/7 apoptosis assay, MCF7; details: 1.25, 2.5, 5 μM
Text: This example covers anti-invasion, apoptosis, and toxicity assays for various endoxifen-related compounds against multiple cancer cell lines. FIGS. 90A-F are plots that summarize results of proliferation assays for multiple cancer cell lines (MCF7, T47D, UCD4, and UCD12) in the presence of varying doses of endoxifen and multiple endoxifen-related compounds. FIGS. 91A-C are plots that summarize results of wound confluence measurements from scratch wound assays on T47D cells in the presence of 1.25 μM (FIG. 91A), 2.5 μM (FIG. 91B), and 5 μM (FIG. 91C) endoxifen and multiple endoxifen-related compounds. FIGS. 92A-C are plots that summarize results of wound density measurements from scratch wound assays on T47D cells in the presence of 1.25 μM (FIG. 92A), 2.5 μM (FIG. 92B), and 5 μM (FIG. 92C) endoxifen and multiple endoxifen-related compounds. FIGS. 93A-C are plots that summarize results of wound confluence measurements from scratch wound assays on MCF7 cells in the presence of 1.25 μM (FIG. 93A), 2.5 μM (FIG. 93B), and 5 μM (FIG. 93C) endoxifen and multiple endoxifen-related compounds. FIGS. 94A-C are plots that summarize results of wound density measurements from scratch wound assays on MCF7 cells in the presence of 1.25 μM (FIG. 94A), 2.5 μM (FIG. 94B), and 5 μM (FIG. 94C) endoxifen and multiple endoxifen-related compounds. […]

[9] = system: ERα+ breast cancer cell lines; experiment: Cell cycle arrest, Example 29
Text: as §1

[10] = system: ERα+ breast cancer cell lines in 3D cultures; experiment: 3D culture cancer cell proliferation; details: ~1 μM
Text: as §1

[11] = system: T47D cells; experiment: Crystal violet cell viability assay, T47D
Description: This example covers the cell toxicities of endoxifen and various endoxifen-related compounds. The toxicities of these compounds were measured using crystal violet cell viabilities assays per the protocols outlined in Feoktistova et al., Cold Spring Harb Protoc., 2016; 4 (PMID: 27037069). This assay utilizes crystal violet, which is a triarylmethane dye that binds to ribose type molecules such as DNA in nuclei. The amount of crystal violet staining is proportional to the cell biomass that is attached to the plate and thus this cell biomass can be used to infer levels of cell viability and cytotoxicity in control/experimental conditions. […]
FIGS. 34-39 summarize crystal violet assays with endoxifen (top-left plot in each figure), Compound 7b (top-middle plot in each figure), Compound 7a (top-right plot in each figure), Compound 5b (bottom-left plot in each figure), Compound 5a (bottom-middle plot in each figure), and Compound 3 (bottom-right plot in each figure). Each individual plot provides normalized absorbance (corresponding to cell concentration) over 25 nM to 5 μM concentration ranges, with the rightmost entry in each plot corresponding to vehicle treatment. […]

[12] = 2D cultures, estrogen-containing media

## CC/C(=C(\c1ccc(O)cc1)c1ccc(OCCN(C)C(C)=O)cc1)c1ccccc1 [Compound 7a]
[1]
  RT-qPCR analysis, potency ranking: most potent
[2]; estrogen-deficient conditions
  anti-proliferative activity compared with (Z)-endoxifen: more effective
[3]; [12]
  anti-proliferative effect, ranking: strongest effects
[3]
  anti-proliferative activity compared with (Z)-endoxifen: more effective
[4]; CSS+E2 media
  anti-proliferative effects in ER+ cells compared with endoxifen: closely resemble that of endoxifen
[5]
  apoptosis induction in MCF7 cells: surpassing (Z)-endoxifen
[6]
  apoptosis induction in T47D cells: significantly induced

## CC/C(=C(/c1ccc(O)cc1)c1ccc(OCC[N+](C)(C)C)cc1)c1ccccc1 [Compound 5b]
[7]
  cell cycle inhibition compared with endoxifen: slightly lower cell cycle inhibition activity than endoxifen
[8]
  potency at inducing the apoptosis of MCF7 cells: equal potencies
[5]
  apoptosis induction in MCF7 cells: surpassing (Z)-endoxifen

## CC/C(=C(\c1ccc(O)cc1)c1ccc(OCC[N+](C)(C)C)cc1)c1ccccc1 [Compound 5a]
[7]
  cell cycle inhibition compared with endoxifen: slightly lower cell cycle inhibition activity than endoxifen
[9]
  G1 cell cycle arrest: most effective
[8]
  potency at inducing the apoptosis of MCF7 cells: equal potencies
[2]; [12]
  anti-proliferative effect, ranking: strongest effects
[10]
  potency in 3D cultures, ranking: comparable, superior potency
[3]
  anti-proliferative activity compared with (Z)-endoxifen: more effective
[4]; T47D cell lines, FIGS. 72-74
  agonist or antagonist behavior (luciferase assay): strong antagonistic behavior
[11]; micromolar concentrations (FIG. 41)
  activity against T47D cells compared with endoxifen: greater activity than endoxifen
[11]; sub-100 nanomolar concentrations (FIG. 41)
  activity against T47D cells compared with endoxifen: lower activity against T47D cells than endoxifen
[5]
  apoptosis induction in MCF7 cells: surpassing (Z)-endoxifen
